These results are taken from patent US6878722B2, “Substituted cycloalkyl P1′ hepatitis C virus inhibitors” (Bristol-Myers Squibb Company, priority 2002, dated 2005).

One may read the EC50 as the concentration at which the effect is half-maximal. The IC50 is the midpoint of a concentration-inhibition curve.

Test [1] has as its system HCV replicon in Huh7 cells. The experiment in a line: HCV replicon cell-based assay (FRET). The conditions noted are these: Hepatitis C virus. A digest of the protocol:
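Huh7 cells stably carrying a genotype 1b HCV replicon (IRES-neo-EMCV-IRES-NS3-NS5B) were treated with compound for 4 days at 37 °C in 0.5% DMSO final. Lysates containing 10 μM FRET peptide RET S1 were read kinetically at 340/490 nm to give NS3 protease activity, from which EC50 was derived.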
For orientation: Replicon systems follow genome replication, usually without infectious particles.

Test [2] deals with T1, HCV NS3/4A protease complex (BMS strain, genotype 1a) (Hepatitis C virus genotype 1a, UniProt P27958, C1454S).
T1 construct: DNA encoding the recombinant HCV NS3/4A protease complex (amino acids 1027 to 1711) for these strains; inferred from the pET21b vector and Ni-NTA purification; made in house; host or cells: Escherichia coli BL21 (DE3), pET21b
T1 sequence (P27958 1658-1714, looked up, stated change not applied): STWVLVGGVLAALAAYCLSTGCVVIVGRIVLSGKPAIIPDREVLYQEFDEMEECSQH
T1 sequence (P27958 1027-1657, looked up, stated change not applied): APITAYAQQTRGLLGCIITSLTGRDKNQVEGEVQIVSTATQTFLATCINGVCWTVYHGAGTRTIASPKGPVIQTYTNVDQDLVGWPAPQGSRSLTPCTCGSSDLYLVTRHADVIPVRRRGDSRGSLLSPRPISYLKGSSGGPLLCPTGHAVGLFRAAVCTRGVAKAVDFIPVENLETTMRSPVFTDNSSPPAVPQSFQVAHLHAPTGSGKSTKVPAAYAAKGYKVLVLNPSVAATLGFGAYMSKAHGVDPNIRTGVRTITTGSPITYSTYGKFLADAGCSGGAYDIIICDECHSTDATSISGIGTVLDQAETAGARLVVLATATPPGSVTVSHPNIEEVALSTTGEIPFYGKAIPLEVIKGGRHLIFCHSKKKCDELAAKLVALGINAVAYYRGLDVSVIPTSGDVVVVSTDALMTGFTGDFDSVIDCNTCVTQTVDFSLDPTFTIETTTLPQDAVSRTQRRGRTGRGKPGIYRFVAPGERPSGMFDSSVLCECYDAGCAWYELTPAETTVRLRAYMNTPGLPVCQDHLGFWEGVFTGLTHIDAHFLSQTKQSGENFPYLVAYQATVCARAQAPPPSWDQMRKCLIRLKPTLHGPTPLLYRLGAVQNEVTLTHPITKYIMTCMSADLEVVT
In words: Recombinant HCV NS3/4A protease complex FRET peptide assay, BMS strain. The test is classed as biochemical. The settings on record: IC50 range, NS3/4A BMS Strain. A digest of the protocol:
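Recombinant NS3/4A complex (aa 1027–1711) with C-terminal three-lysine tail, C1711G and C1454S, expressed in E. coli BL21(DE3) and purified by Ni-NTA then Superdex-S200. Inhibition of the complex from each strain measured in vitro by FRET peptide cleavage.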

The mark [3] stands for this setting: Huh-7, HCV replicon, read-out: EC50 range.

Like-named read-outs stand apart in the source and are kept apart here.

Consider `C=C[C@@H]1C[C@]1(NC(=O)[C@@H]1C[C@@H](Oc2ccnc3cc(Cl)ccc23)CN1C(=O)[C@@H](NC(=O)OC1CCCC1)C(C)(C)C)C(=O)NS(=O)(=O)C1(CC2CC2)CC1` [Compound 66, (1-{4-(7-Chloro-quinolin-4-yloxy)-2-[1-(1-cyclopropylmethyl-cyclopropanesulfonylaminocarbonyl)-2-vinyl-cyclopropylcarbamoyl]-pyrrolidine-1-carbonyl}-2,2-dimethyl-propyl)-carbamic acid cyclopentyl ester], for which, in test [1] (setting [3]), the EC50 fell in the range of 50 to 500 nM. Further, the IC50 in test [2] is less than 50 nM.
With `C=CCC1(S(=O)(=O)NC(=O)[C@@]2(NC(=O)[C@@H]3C[C@@H](Oc4ccnc5cc(Cl)ccc45)CN3C(=O)[C@@H](NC(=O)OC3CCCC3)C(C)(C)C)C[C@H]2C=C)CC1` [Compound 67, {1-[2-[1-(1-Allyl-cyclopropanesulfonylaminocarbonyl)-2-vinyl-cyclopropylcarbamoyl]-4-(7-chloro-quinolin-4-yloxy)-pyrrolidine-1-carbonyl]-2,2-dimethyl-propyl}-carbamic acid cyclopentyl ester], the EC50 in test [1] (setting [3]) is 50 to 500 nM. The IC50 in test [2] lay in the range of 50 to 500 nM.
As for `C=C[C@@H]1C[C@]1(NC(=O)[C@@H]1C[C@@H](Oc2cc(C3CC3)nc3cc(OC)ccc23)CN1C(=O)[C@@H](NC(=O)OC(C)(C)C)C(C)(C)C)C(=O)NS(=O)(=O)C1(Cc2ccccc2)CC1` [Compound 68, BOCNH—P3(L-t-BuGly)-P2[(4R)-(2-cyclopropyl-7-methoxyquinoline-4-oxo)-S-proline]-P1(1R,2S Vinyl Acca)-CONHSO2(1-benzylclopropan-1-yl)], the EC50 in test [1] (Huh-7, read-out: EC50 range) lay within 50 to 500 nM. In test [2], the IC50 is less than 50 nM.
Turning to `C=C[C@@H]1C[C@]1(NC(=O)[C@@H]1C[C@@H](Oc2cc(C3CC3)nc3cc(OC)ccc23)CN1C(=O)[C@@H](NC(=O)OC(C)(C)C)C(C)(C)C)C(=O)NS(=O)(=O)C1(CC#CCC)CC1` [Compound 69, (1-{4-(2-Cyclopropyl-7-methoxy-quinolin-4-yloxy)-2-[1-(1-pent-2-ynyl-cyclopropanesulfonylaminocarbonyl)-2-vinyl-cyclopropylcarbamoyl]-pyrrolidine-1-carbonyl}-2,2-dimethyl-propyl)-carbamic acid tert-butyl ester], the EC50 in test [1] (setting [3]) was less than 50 nM. The IC50 in test [2] is less than 50 nM.
For `C=C[C@@H]1C[C@]1(NC(=O)[C@@H]1C[C@@H](Oc2cc(C3CC3)nc3cc(OC)ccc23)CN1C(=O)[C@@H](NC(=O)OC(C)(C)C)C(C)(C)C)C(=O)NS(=O)(=O)C1(CC2CC2)CC1` [Compound 70, (1-{4-(2-Cyclopropyl-7-methoxy-quinolin-4-yloxy)-2-[1-(1-cyclopropylmethyl-cyclopropanesulfonylaminocarbonyl)-2-vinyl-cyclopropylcarbamoyl]-pyrrolidine-1-carbonyl}-2,2-dimethyl-propyl)-carbamic acid tert-butyl ester], in test [1] (setting [3]), the EC50 was less than 50 nM. Moreover, the IC50 in test [2] was less than 50 nM.
With `COc1ccc2c(O[C@@H]3C[C@@H](C(=O)NC4(C(=O)NS(=O)(=O)C5([Si](C)(C)C)CC5)CC4)N(C(=O)[C@@H](NC(=O)OC(C)(C)C)C(C)(C)C)C3)cc(-c3ccccc3)nc2c1` [Compound 71], the EC50 in test [1] (setting [3]) was in the range of 500 to 5000 nM. Besides, the IC50 in test [2] was in the range of 50 to 500 nM.
Take `COc1ccc2c(O[C@@H]3C[C@@H](C(=O)NC4(C(=O)NS(=O)(=O)C5(C(=O)Nc6ccccc6)CC5)CC4)N(C(=O)[C@@H](NC(=O)OC(C)(C)C)C(C)(C)C)C3)cc(-c3ccccc3)nc2c1` [Compound 72, (1-{4-(7-Methoxy-2-phenyl-quinolin-4-yloxy)-2-[1-(1-phenylcarbamoyl-cyclopropanesulfonylaminocarbonyl)-cyclopropylcarbamoyl]-pyrrolidine-1-carbonyl}-2,2-dimethyl-propyl)-carbamic acid tert-butyl ester]: the concentration for a half-maximal effect (EC50) in test [1] (setting [3]) was 5000 to 50000 nM. Besides, the IC50 in test [2] fell in the range of 500 to 5000 nM.
As for `COc1ccc2c(O[C@@H]3C[C@@H](C(=O)NC4(C(=O)NS(=O)(=O)C5(Cc6ccccc6)CC5)CC4)N(C(=O)[C@@H](NC(=O)OC(C)(C)C)C(C)(C)C)C3)cc(-c3ccccc3)nc2c1` [Compound 74, {1-[2-[1-(1-Benzyl-cyclopropanesulfonylaminocarbonyl)-cyclopropylcarbamoyl]-4-(7-methoxy-2-phenyl-quinolin-4-yloxy)-pyrrolidine-1-carbonyl]-2,2-dimethyl-propyl}-carbamic acid tert-butyl ester], in test [1] (setting [3]), the EC50 lay in the range of 5000 to 50000 nM. Further, the IC50 in test [2] lay within 500 to 5000 nM.
As for `C=CCC1(S(=O)(=O)NC(=O)C2(NC(=O)[C@@H]3C[C@@H](Oc4cc(-c5ccccc5)nc5cc(OC)ccc45)CN3C(=O)[C@@H](NC(=O)OC(C)(C)C)C(C)(C)C)CC2)CC1` [Compound 75, {1-[2-[1-(1-Allyl-cyclopropanesulfonylaminocarbonyl)-cyclopropylcarbamoyl]-4-(7-methoxy-2-phenyl-quinolin-4-yloxy)-pyrrolidine-1-carbonyl]-2,2-dimethyl-propyl}-carbamic acid tert-butyl ester], the EC50 in test [1] (setting [3]) is 500 to 5000 nM. For the same compound, the IC50 in test [2] is less than 50 nM.
Take `COc1ccc2c(O[C@@H]3C[C@@H](C(=O)NC4(C(=O)NS(=O)(=O)C5(C6=CCCCC6)CC5)CC4)N(C(=O)[C@@H](NC(=O)OC(C)(C)C)C(C)(C)C)C3)cc(-c3ccccc3)nc2c1` [Compound 76, {1-[2-[1-(1-Cyclohex-1-enyl-cyclopropanesulfonylaminocarbonyl)-cyclopropylcarbamoyl]-4-(7-methoxy-2-phenyl-quinolin-4-yloxy)-pyrrolidine-1-carbonyl]-2,2-dimethyl-propyl}-carbamic acid tert-butyl ester]: the EC50 in test [1] (setting [3]) was in the range of 500 to 5000 nM. Also, in test [2], the IC50 lay within 50 to 500 nM.
On to `C=C[C@@H]1C[C@]1(NC(=O)[C@@H]1C[C@@H](Oc2cc(-c3nc(C(C)C)cs3)nc3cc(OC)ccc23)CN1C(=O)[C@@H](NC(=O)OC(C)(C)C)C(C)(C)C)C(=O)OS(=O)(=O)C1(CCC)CC1` [Compound 77], for which the EC50 in test [1] (setting [3]) was less than 50 nM. For the same compound, in test [2], the IC50 is less than 50 nM.
Consider `C=C[C@@H]1C[C@]1(NC(=O)[C@@H]1C[C@@H](Oc2cc(-c3csc(NC(C)C)n3)nc3cc(OC)ccc23)CN1C(=O)[C@@H](NC(=O)OC(C)(C)C)C(C)(C)C)C(=O)NS(=O)(=O)C1(CC2CC2)CC1` [Compound 80, (1-{2-[1-(1-Cyclopropylmethyl-cyclopropanesulfonylaminocarbonyl)-2-vinyl-cyclopropylcarbamoyl]-4-[2-(2-isopropylamino-thiazol-4-yl)-7-methoxy-quinolin-4-yloxy]-pyrrolidine-1-carbonyl}-2,2-dimethyl-propyl)-carbamic acid tert-butyl ester], for which, in test [1] (setting [3]), the EC50 was 50 to 500 nM. Moreover, the IC50 in test [2] is less than 50 nM.
On to `C=C[C@@H]1C[C@]1(NC(=O)[C@@H]1C[C@@H](Oc2cc(-c3ccccc3)nc3cc(OC)ccc23)CN1C(=O)[C@@H](NC(=O)OC1(C(=O)OCC)CC1)C(C)(C)C)C(=O)NS(=O)(=O)C1(Cc2ccccc2)CC1` [Compound 81], for which the EC50 in test [1] (Huh-7, read-out: EC50 range) lay in the range of 50 to 500 nM. For the same compound, the IC50 in test [2] lay within 50 to 500 nM.
`C=C[C@@H]1C[C@]1(NC(=O)[C@@H]1C[C@@H](Oc2cc(-c3ccccc3)nc3cc(OC)ccc23)CN1C(=O)[C@@H](NC(=O)Oc1ccc(C)cc1)C(C)(C)C)C(=O)NS(=O)(=O)C1(Cc2ccccc2)CC1` [Compound 100]: the EC50 in test [1] (setting [3]) lay within 500 to 5000 nM. Also, the IC50 in test [2] was in the range of 50 to 500 nM.
On the same counts, the results for `C=C[C@@H]1C[C@]1(NC(=O)[C@@H]1C[C@@H](Oc2cc(-c3ccccc3)nc3cc(OC)ccc23)CN1C(=O)[C@@H](NC(=O)Oc1ccccc1)C(C)(C)C)C(=O)NS(=O)(=O)C1(Cc2ccccc2)CC1` [Compound 101] are 500 to 5000 nM and 50 to 500 nM.
As for `C=C[C@@H]1C[C@]1(NC(=O)[C@@H]1C[C@@H](Oc2cc(-c3ccccc3)nc3cc(OC)ccc23)CN1C(=O)[C@@H](NC(=O)Oc1ccc(F)cc1)C(C)(C)C)C(=O)NS(=O)(=O)C1(Cc2ccccc2)CC1` [Compound 102], in test [1] (setting [3]), the EC50 fell in the range of 500 to 5000 nM. The IC50 in test [2] lay in the range of 50 to 500 nM.
On the same counts, the results for `C=C[C@@H]1C[C@]1(NC(=O)[C@@H]1C[C@@H](Oc2cc(-c3ccccc3)nc3cc(OC)ccc23)CN1C(=O)[C@@H](NC(=O)Oc1ccc(OC)cc1)C(C)(C)C)C(=O)NS(=O)(=O)C1(Cc2ccccc2)CC1` [Compound 103] are 50 to 500 nM and 50 to 500 nM.
For `C=C[C@@H]1C[C@]1(NC(=O)[C@@H]1C[C@@H](Oc2cc(-c3ccccc3)nc3cc(OC)ccc23)CN1C(=O)[C@@H](NC(=O)OCCOC)C(C)(C)C)C(=O)NS(=O)(=O)C1(Cc2ccccc2)CC1` [Compound 104] the same measures were 500 to 5000 nM and 50 to 500 nM.
With `C=C[C@@H]1C[C@]1(NC(=O)[C@@H]1C[C@@H](Oc2cc(-c3ccccc3)nc3cc(OC)ccc23)CN1C(=O)[C@@H](NC(=O)OCC(C)(C)C)C(C)(C)C)C(=O)NS(=O)(=O)C1(Cc2ccccc2)CC1` [Compound 105], the EC50 in test [1] (setting [3]) fell in the range of 50 to 500 nM. In addition, in test [2], the IC50 is less than 50 nM.
For `C=C[C@@H]1C[C@]1(NC(=O)[C@@H]1C[C@@H](Oc2cc(-c3ccccc3)nc3cc(OC)ccc23)CN1C(=O)[C@@H](NC(=O)OCCF)C(C)(C)C)C(=O)NS(=O)(=O)C1(Cc2ccccc2)CC1` [Compound 106] the same measures were 50 to 500 nM and less than 50 nM.
On the same counts, the results for `C=C[C@@H]1C[C@]1(NC(=O)[C@@H]1C[C@@H](Oc2cc(-c3ccccc3)nc3cc(OC)ccc23)CN1C(=O)[C@@H](NC(=O)Oc1ccccc1OC)C(C)(C)C)C(=O)NS(=O)(=O)C1(Cc2ccccc2)CC1` [Compound 107] are 500 to 5000 nM and 50 to 500 nM.
